Values joined by “and” are separate entries in the source; they are usually repeats but may differ in a detail not shown here. Equal values may be shown once. Toxic doses and inconclusive results are not listed.
System: BDF1 mice, P388 leukemia ip, median survival T/C
Test: NCI In Vivo Anticancer Drug Screen. Data for tumor model P388 Leukemia (intraperitoneal) in B6D2F1 (BDF1) mice
Settings: endpoint: median survival time, higher = longer survival
Outline: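 Vehicle-dosed animals serve as the reference; survival of compound-dosed, tumour-implanted mice is divided by it.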

[1] = dose: 12.5 mg/kg/injection, schedule: Q01DX009 (ip), vehicle: saline
[2] = dose: 100.0 mg/kg/injection, schedule: Q04DX003 (ip), vehicle: Klucel (hydroxypropylcellulose) (HPC)
[3] = dose: 200.0 mg/kg/injection, schedule: Q04DX003 (ip), vehicle: Klucel (hydroxypropylcellulose) (HPC)
[4] = dose: 400.0 mg/kg/injection, schedule: Q04DX003 (ip), vehicle: Klucel (hydroxypropylcellulose) (HPC)
[5] = dose: 25.0 mg/kg/injection, schedule: Q01DX009 (ip), vehicle: saline with Tween-80
[6] = dose: 50.0 mg/kg/injection, schedule: Q01DX009 (ip), vehicle: saline with Tween-80
[7] = dose: 100.0 mg/kg/injection, schedule: Q01DX009 (ip), vehicle: saline with Tween-80
[8] = dose: 200.0 mg/kg/injection, schedule: Q01DX009 (ip), vehicle: saline with Tween-80
[9] = dose: 100.0 mg/kg/injection, schedule: Q04DX003 (ip), vehicle: saline with Tween-80
[10] = dose: 200.0 mg/kg/injection, schedule: Q04DX003 (ip), vehicle: saline with Tween-80
[11] = dose: 400.0 mg/kg/injection, schedule: Q04DX003 (ip), vehicle: saline with Tween-80
[12] = dose: 12.5 mg/kg/injection, schedule: Q01DX009 (ip), vehicle: Klucel (hydroxypropylcellulose) (HPC)
[13] = dose: 25.0 mg/kg/injection, schedule: Q01DX009 (ip), vehicle: Klucel (hydroxypropylcellulose) (HPC)
[14] = dose: 50.0 mg/kg/injection, schedule: Q01DX009 (ip), vehicle: Klucel (hydroxypropylcellulose) (HPC)
[15] = dose: 50.0 mg/kg/injection, schedule: Q04DX003 (ip), vehicle: saline with Tween-80
[16] = dose: 100.0 mg/kg/injection, schedule: Q01DX009 (ip), vehicle: Klucel (hydroxypropylcellulose) (HPC)
[17] = dose: 100.0 mg/kg/injection, schedule: Q01DX005 (ip), vehicle: saline with Tween-80
[18] = dose: 200.0 mg/kg/injection, schedule: Q01DX005 (ip), vehicle: saline with Tween-80

## Cc1nc(Cl)c2cnccn12
[1]
  T/C: 100 % of control
dose: 25.0 mg/kg/injection, schedule: Q01DX009 (ip), vehicle: saline
  T/C: 95 % of control
dose: 50.0 mg/kg/injection, schedule: Q01DX009 (ip), vehicle: saline
  T/C: 86 % of control

## COc1cc(NC(=O)C(C)NC(=O)C(N)CCCCN)cc2ccccc12 (stereo not drawn)
dose: 50.0 mg/kg/injection, schedule: Q01DX005 (ip), vehicle: suspension in saline
  T/C: 95 % of control
dose: 100.0 mg/kg/injection, schedule: Q01DX005 (ip), vehicle: suspension in saline
  T/C: 90 % of control

## COc1ccc(-n2nc3c(c2-c2cccnc2)CCc2ccccc2-3)cc1
[2]
  T/C: 103 % of control
[3]
  T/C: 109 % of control
[4]
  T/C: 105 % of control

## CC(=O)OCc1c(C)nc2sccn12
dose: 12.5 mg/kg/injection, schedule: Q01DX001 (ip), vehicle: saline
  T/C: 102 % of control
dose: 25.0 mg/kg/injection, schedule: Q01DX001 (ip), vehicle: saline
  T/C: 92 % of control
dose: 50.0 mg/kg/injection, schedule: Q01DX001 (ip), vehicle: saline
  T/C: 96 % of control

## O=CC(OC(=O)c1ccccc1)C(OC(=O)c1ccccc1)C(COC(c1ccccc1)(c1ccccc1)c1ccccc1)OC(=O)c1ccccc1 (stereo not drawn)
[5]
  T/C: 110 % of control
[6]
  T/C: 110 % of control
[7]
  T/C: 120 % of control
[8]
  T/C: 100 % of control and 108 % of control

## CCCNC(=O)Nc1ccc(C)c(Cl)c1
[9]
  T/C: 104 % of control
[10]
  T/C: 100 % of control
[11]
  T/C: 95 % of control

## Cc1cc(Oc2ccc(Cl)cc2NC(=O)Nc2cccc(C(F)(F)F)c2)cc(S(=O)(=O)O)c1Cl
dose: 25.0 mg/kg/injection, schedule: Q01DX001 (ip), vehicle: other
  T/C: 100 % of control
dose: 50.0 mg/kg/injection, schedule: Q01DX001 (ip), vehicle: other
  T/C: 108 % of control
dose: 100.0 mg/kg/injection, schedule: Q01DX001 (ip), vehicle: other
  T/C: 100 % of control

## CCOC(=O)C1=C(C)NC(C)=C(C(=O)OCC)C1c1ccccc1
[6]
  T/C: 95 % of control
[8]
  T/C: 95 % of control

## COC(=O)C1(C)N=C(Cc2ccccc2)OO1 (stereo not drawn)
[5]
  T/C: 100 % of control
[6]
  T/C: 110 % of control
[7]
  T/C: 105 % of control

## O=I(=O)c1ccccc1
[12]
  T/C: 91 % of control
dose: 17.0 mg/kg/injection, schedule: Q01DX009 (ip), vehicle: saline with Tween-80
  T/C: 92 % of control
[13]
  T/C: 86 % of control and 100 % of control
[5]
  T/C: 96 % of control
dose: 25.0 mg/kg/injection, schedule: Q04DX003 (ip), vehicle: saline with Tween-80
  T/C: 100 % of control
dose: 37.0 mg/kg/injection, schedule: Q01DX009 (ip), vehicle: saline with Tween-80
  T/C: 96 % of control
[14]
  T/C: 86 % of control and 90 % of control and 118 % of control
[6]
  T/C: 115 % of control
[15]
  T/C: 90 % of control
[16]
  T/C: 104 % of control
[7]
  T/C: 120 % of control
[9]
  T/C: 90 % of control

## CCCCCCCCCCCC[N+](C)(C)CCC[N+](C)(C)CCCCCCCCCCCC
dose: 6.25 mg/kg/injection, schedule: Q01DX009 (ip), vehicle: saline
  T/C: 109 % of control
[1]
  T/C: 116 % of control

## CC(C)(C)C1CNP(=O)(c2ccccc2)OC1 (stereo not drawn)
dose: 50.0 mg/kg/injection, schedule: Q01DX005 (ip), vehicle: saline with Tween-80
  T/C: 99 % of control
[17]
  T/C: 101 % of control
[18]
  T/C: 100 % of control

## Nc1nc(CCl)nc(Nc2ccccc2)n1
[12]
  T/C: 100 % of control
[13]
  T/C: 98 % of control
[14]
  T/C: 102 % of control
[16]
  T/C: 100 % of control

## Nc1nc(=O)n(C2OC(CO)C(O)C2O)c2nc(I)[nH]c12 (stereo not drawn)
dose: 12.5 mg/kg/injection, schedule: Q04DX003 (ip), vehicle: saline
  T/C: 97 % of control
dose: 25.0 mg/kg/injection, schedule: Q04DX003 (ip), vehicle: saline
  T/C: 97 % of control
dose: 50.0 mg/kg/injection, schedule: Q04DX003 (ip), vehicle: saline
  T/C: 105 % of control
dose: 100.0 mg/kg/injection, schedule: Q04DX003 (ip), vehicle: saline
  T/C: 108 % of control
dose: 200.0 mg/kg/injection, schedule: Q04DX003 (ip), vehicle: saline
  T/C: 111 % of control

## Brc1ccc(-c2csc(Nc3nc(-c4ccc(Br)cc4)cs3)n2)cc1
[9]
  T/C: 90 % of control
[10]
  T/C: 90 % of control
[11]
  T/C: 95 % of control

## NC1=NCC(CSc2ccc(Cl)c(Cl)c2)O1 (stereo not drawn)
dose: 50.0 mg/kg/injection, schedule: Q04DX002 (ip), vehicle: saline + Tween-80 + alcohol
  T/C: 95 % of control
dose: 100.0 mg/kg/injection, schedule: Q04DX002 (ip), vehicle: saline + Tween-80 + alcohol
  T/C: 101 % of control
dose: 200.0 mg/kg/injection, schedule: Q04DX002 (ip), vehicle: saline + Tween-80 + alcohol
  T/C: 95 % of control

## OC1(CSc2ccccc2)C=CCCC1 (stereo not drawn)
[5]
  T/C: 97 % of control and 111 % of control
[6]
  T/C: 98 % of control and 112 % of control and 113 % of control
[7]
  T/C: 109 % of control and 112 % of control and 121 % of control
[8]
  T/C: 111 % of control and 119 % of control and 120 % of control

## COc1cc(-c2ccc(N=Nc3c(O)c(C(=O)Nc4ccccc4OC)cc4ccccc34)c(OC)c2)ccc1N=Nc1c(O)c(C(=O)Nc2ccccc2OC)cc2ccccc12
[17]
  T/C: 97 % of control
[18]
  T/C: 92 % of control

## CCCCCCN(CCCCCC)P(=O)(N1CC1)N1CC1
dose: 14.0 mg/kg/injection, schedule: Q04DX003 (ip), vehicle: saline
  T/C: 95 % of control
dose: 21.0 mg/kg/injection, schedule: Q04DX003 (ip), vehicle: saline
  T/C: 104 % of control
dose: 33.0 mg/kg/injection, schedule: Q04DX003 (ip), vehicle: saline with Tween-80
  T/C: 100 % of control and 118 % of control
[15]
  T/C: 150 % of control
dose: 75.0 mg/kg/injection, schedule: Q04DX003 (ip), vehicle: saline with Tween-80
  T/C: 181 % of control

## C=CC(c1ccccc1)C(O)(Cc1ccccc1)Cc1ccccc1 (stereo not drawn)
dose: 12.5 mg/kg/injection, schedule: Q01DX009 (ip), vehicle: DMSO
  T/C: 116 % of control
dose: 50.0 mg/kg/injection, schedule: Q01DX009 (ip), vehicle: DMSO
  T/C: 100 % of control

## COc1cc(O)c2c(c1)C(=O)c1cc(C)cc(O)c1C2=O
dose: 2.5 mg/kg/injection, schedule: Q01DX009 (ip), vehicle: saline with Tween-80
  T/C: 100 % of control
dose: 5.0 mg/kg/injection, schedule: Q01DX009 (ip), vehicle: saline with Tween-80
  T/C: 100 % of control
dose: 10.0 mg/kg/injection, schedule: Q01DX009 (ip), vehicle: saline with Tween-80
  T/C: 95 % of control
dose: 20.0 mg/kg/injection, schedule: Q01DX009 (ip), vehicle: saline with Tween-80
  T/C: 100 % of control

## CN1/C(=C/C=C(/N=C(C#N)C#N)c2ccccc2)C(C)(C)c2ccccc21
[6]
  T/C: 95 % of control
[7]
  T/C: 98 % of control
[8]
  T/C: 98 % of control

## Nc1nc2c(c(=O)[nH]1)N(CCS(=O)(=O)F)C(CNc1ccc(C(=O)NC(CCC(=O)O)C(=O)O)cc1)CN2 (stereo not drawn)
dose: 50.0 mg/kg/injection, schedule: Q04DX003 (ip), vehicle: sodium bicarbonate
  T/C: 105 % of control
dose: 100.0 mg/kg/injection, schedule: Q04DX003 (ip), vehicle: sodium bicarbonate
  T/C: 99 % of control
dose: 200.0 mg/kg/injection, schedule: Q04DX003 (ip), vehicle: sodium bicarbonate
  T/C: 99 % of control

## O=[N+]([O-])c1ccc([I+]c2ccccc2)cc1
dose: 1.5 mg/kg/injection, schedule: Q04DX003 (ip), vehicle: saline sonified
  T/C: 100 % of control
dose: 5.5 mg/kg/injection, schedule: Q01DX009 (ip), vehicle: saline with Tween-80
  T/C: 150 % of control
dose: 8.25 mg/kg/injection, schedule: Q01DX009 (ip), vehicle: saline with Tween-80
  T/C: 154 % of control
dose: 12.0 mg/kg/injection, schedule: Q04DX003 (ip), vehicle: saline sonified
  T/C: 118 % of control
dose: 16.5 mg/kg/injection, schedule: Q04DX003 (ip), vehicle: saline
  T/C: 150 % of control
[5]
  T/C: 154 % of control
[6]
  T/C: 150 % of control
[7]
  T/C: 158 % of control
dose: 100.0 mg/kg/injection, schedule: Q04DX003 (ip), vehicle: saline sonified
  T/C: 150 % of control

## CC(=O)N1CSCC1C(=O)O (stereo not drawn)
[2]
  T/C: 100 % of control
[3]
  T/C: 100 % of control
[4]
  T/C: 100 % of control

Reference: PubChem BioAssay AID328 (DTP/NCI, 2004)
